Literature values as cited in US20100004582A1, “Wide-Area Parasystemic Treatment of Skin Related Conditions” (PANTEC BIOSOLUTIONS AG, priority 2006, published 2010).

System: psoriasis
Details: conventional efalizumab treatment, not via porated skin

## efalizumab
  patients in whom treatment attenuated the disease: 22-28 % of patients
